Test results from ChEMBL document CHEMBL5725286, “Polyfluorinated compounds acting as bruton tyrosine kinase inhibitors” (2017).

Target: Tyrosine-protein kinase BTK (Homo sapiens, UniProt Q06187)
Assay: HTRF Assay: The enzyme reaction mixture of BTK wild type standard HTRF assay contained 1 nM BTK wild type, 1 μM biotin-TK1 peptide, and 30 μM ATP in a buffer. The enzyme reaction were carried out at room temperature for 60 minutes. 5 μl of 0.2 M EDTA were added to quench the reaction and then […] were added at final concentrations of 2 nM antibody and 62.5 nM XL665. The plates were incubated at room temperature for 60 minutes and then read in the Envision plate reader.

Chain of Tyrosine-protein kinase BTK (Q06187 whole entry): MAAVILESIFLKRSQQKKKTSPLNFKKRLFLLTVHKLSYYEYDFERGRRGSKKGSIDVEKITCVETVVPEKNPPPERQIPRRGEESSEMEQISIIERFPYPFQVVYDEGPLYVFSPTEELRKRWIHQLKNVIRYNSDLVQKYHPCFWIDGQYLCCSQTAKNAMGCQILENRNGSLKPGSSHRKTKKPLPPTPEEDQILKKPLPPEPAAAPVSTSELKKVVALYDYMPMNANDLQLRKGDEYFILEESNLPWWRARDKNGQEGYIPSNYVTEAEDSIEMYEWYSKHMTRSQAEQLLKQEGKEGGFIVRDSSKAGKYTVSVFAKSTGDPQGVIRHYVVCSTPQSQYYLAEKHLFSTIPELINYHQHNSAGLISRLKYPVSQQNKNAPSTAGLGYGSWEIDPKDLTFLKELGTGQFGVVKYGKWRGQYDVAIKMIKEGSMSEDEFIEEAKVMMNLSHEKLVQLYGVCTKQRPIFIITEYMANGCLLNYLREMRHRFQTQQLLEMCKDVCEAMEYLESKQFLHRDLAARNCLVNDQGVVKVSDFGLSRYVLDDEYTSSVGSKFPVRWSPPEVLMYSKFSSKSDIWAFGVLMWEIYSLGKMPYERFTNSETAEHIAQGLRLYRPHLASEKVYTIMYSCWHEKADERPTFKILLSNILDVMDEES

Compound: Nc1ncnc2c1c(-c1ccc(Oc3c(F)c(F)cc(F)c3F)cc1F)nn2C1CCC(NC(=O)CSSCC(=O)NC2CCC(n3nc(-c4ccc(Oc5c(F)c(F)cc(F)c5F)cc4F)c4c(N)ncnc43)CC2)CC1 (stereo unspecified)
- IC50: 22 nM
